Measured values: article PMC7395068, “The evolution of strategies to minimise the risk of human drug-induced liver injury (DILI) in drug discovery and development” (Archives of Toxicology, 2020)
Like-named read-outs stand apart in the source and are kept apart here.

What was measured:
[1] = cited from earlier work
[2] = Plasma free fraction (fu) and unbound Cmax (Cmax,u); type: in vitro ADME, human; conditions: unbound plasma Cmax
Description: The prediction of DILI severity was evaluated further using the 3D combined HCI assays using plasma-free fraction. The majority of fu values were obtained from literature, when unavailable in-house prediction was utilised. Unbound plasma Cmax concentrations (Cmax,u) were derived by multiplying total plasma Cmax with the corresponding free fraction (fu) for each compound.

HepG2 cells [3] = conditions: cited from earlier work
PHH spheroids = conditions: cited from earlier work
[4] = read-out: Human plasma Cmax; total plasma Cmax.tot, median of 9 literature references; cited from earlier work
hLiMTs [5] = test: Combined HCI (HCS) and cellular ATP 3D assay in hLiMTs; conditions: for AC50 / minimal effective concentration: Homo sapiens
[6] = system: HepG2 cells, primary human hepatocytes; conditions: In vitro Assay; ref Garside 2014; cited from earlier work
HepG2 cells [7] = conditions: cited from earlier work; remark: listed apart in the source
Upcyte human hepatocytes = conditions: In vitro Assay; ref Tolosa 2019; cited from earlier work
[8] = ref Chen 2011; cited from earlier work
[9] = system: THLE-Null and THLE-3A4 cells; conditions: In vitro Assay; ref Gustafsson 2014; cited from earlier work
hLiMTs [10] = conditions: cited from earlier work
[11] = system: THLE or HepG2 cells, isolated mitochondria, BSEP; conditions: cited from earlier work
[12] = cited from earlier work; remark: listed apart in the source
human hepatocytes = conditions: cited from earlier work
PHH = conditions: cited from earlier work
rBsep = conditions: cited from earlier work
HepaRG spheroids = test: Combined HCI (HCS) and cellular ATP 3D assay in HepaRG spheroids; conditions: for AC50 / minimal effective concentration: Homo sapiens
[13] = plasma free fraction; cited from earlier work
[14] = system: HepG2 C3A spheroid, BSEP, Glu/Gal in HepG2 cells, bioactivation; conditions: cited from earlier work
HepG2 cells [15] = conditions: cited from earlier work; remark: listed apart in the source
[16] = Microtissue model structural based (HCI), combined HCS and ATP, MEC < 25 × Cmax.tot cut-off
[17] = In vitro Assay, ref Persson 2013
[18] = In vitro Assay, ref Proctor 2017
[19] = Modeled in vitro assays (cytotoxicity, mitochondrial dysfunction, BSEP), ref Aleo et al. 2019

For CN(C)CCCN1c2ccccc2Sc2ccc(Cl)cc21 [chlorpromazine, reference compound], the “DILI severity category (Chen et al. [2016])” value ([1]; LTKB DILIrank category, ref Chen et al. 2016) is given as “Less”, the “DILI severity category (Chen 2016)” value ([1]; human DILI classification, LTKB DILIrank, ref Chen et al. 2016) is given as “Less” and the DILI severity category ([1]; human DILI severity, ref Chen et al.) is given as “Less”. The “DILI +VE (5-8), DILI -VE (-4)” value ([1]; ref Chen 2016) was “+VE”, the DILI severity category ([1]; ref Chen 2016) was “vLess-DILI-Concern” and the “Human plasma Cmax,u” value [2] was 47 nM. The “Structural based (HCI)” value (HepG2 cells [3]; In vitro Assay, ref Tolosa 2012) was “+VE”, the “DILI in vitro assay prediction, Tolosa (2012)” value (HepG2 cells [3]; Structural based (HCI), HepG2, ref Tolosa et al. 2012) was “+VE” and the “hLiMTs ATP <20 x Cmax” value (PHH spheroids; In vitro Assay, ref Vorrink 2018) was “+VE (IC20 < 20 × Cmax.tot cut-off)”. The “DILI in vitro assay prediction, Vorrink (2018)” value (PHH spheroids; PHH spheroids, ATP, 14 days, IC20 < 20 × Cmax.tot, ref Vorrink et al. 2018) was “+VE (IC20 < 20 × Cmax.tot cut-off)”, the Cmax [4] was 941 nM and the AC50 (hLiMTs [5]; read-out: ATP endpoint AC50) was 3.73 µM. It also gave a minimal effective concentration (hLiMTs [5]; read-out: ATP endpoint MEC) of 2.7 µM, an AC50 (hLiMTs [5]; read-out: HCS endpoint AC50) of 6.41 µM and a minimal effective concentration (hLiMTs [5]; read-out: HCS endpoint MEC) of 2.47 µM. For the same compound, the “DILI prediction hLiMTs (HCS-MEC)” value (hLiMTs [5]; [16]) was “+VE (MEC < 25 × Cmax.tot cut-off)”, the “hLiMTs <25x Avg Cmax ATP” value (hLiMTs [5]; hLiMTs, ATP endpoint, cut-off <25x Avg Cmax) was “+ve” and the “hLiMTs <100x Avg Cmaxu ATP” value (hLiMTs [5]; hLiMTs, ATP endpoint, cut-off <100x Avg Cmaxu) was “+ve (<100x Avg Cmaxu)”. The “hLiMTs <25x Avg Cmax HCS” value (hLiMTs [5]; hLiMTs, HCS endpoints, cut-off <25x Avg Cmax) was “+ve”, the “hLiMTs <100x Avg Cmaxu HCS” value (hLiMTs [5]; hLiMTs, HCS endpoints, cut-off <100x Avg Cmaxu) was “+ve (<100x Avg Cmaxu)” and the “hLiMTs <25x Avg Cmax All” value (hLiMTs [5]; hLiMTs, all endpoints (ATP and HCS), cut-off <25x Avg Cmax) was “+ve”. For the same compound, the “hLiMTs Cmax max All” value (hLiMTs [5]; hLiMTs, all endpoints, Cmax max used) was “+ve”, the “hLiMTs Cmax min All” value (hLiMTs [5]; hLiMTs, all endpoints, Cmax min used) was “+ve” and the “hLiMTs <10 uM All” value (hLiMTs [5]; hLiMTs, all endpoints, cut-off <10 uM) was “+ve (<10 uM)”. The “hLiMTs <100x Avg Cmaxu All” value (hLiMTs [5]; hLiMTs, all endpoints, cut-off <100x Avg Cmaxu) was “+ve (<100x Avg Cmaxu)”, the “Cluster 1-6 +VE Assay” value [6] was “+VE” and the Cluser analysis (HepG2 cells [7]; [17]) was “+VE”. The “Structural based (HCI)” value (HepG2 cells [7]; [17]) was “+VE”, the “DILI in vitro assay prediction, Persson (2013)” value (HepG2 cells [7]; Structural based (HCI), HepG2, ref Persson et al. 2013) was “+VE” and the “Upcytes multi donor assay 14day data” value (Upcyte human hepatocytes) was “+VE”. The “DILI Score (FDA) (1-8)” value [8] was 2, the THLE-Null [9] was “+VE” and the “hLiMTs ATP <100uM” value (hLiMTs [10]; [18]) was “+VE (IC50 threshold of 100 µM)”. For the same compound, the “hLiMTs/100xCmax, Proctor (2017)” value (hLiMTs [10]; hLiMTs, ATP, IC50 < 100 × Cmax.tot, ref Proctor et al. 2017) was “+VE (IC50 < 100 × Cmax.tot)”, the “hLiMTs/100uM, Proctor (2017)” value (hLiMTs [10]; hLiMTs, ATP, IC50 threshold 100 µM, ref Proctor et al. 2017) was “+VE (IC50 threshold of 100 µM)” and the “Partition Hybrid HRM Score” value ([11]; In vitro Assay, ref Aleo 2019) was “+VE”. The “Ro2 Hybrid HRM Score” value ([11]; In vitro Assay, ref Aleo 2019) was “+VE”, the “Partition Hybrid HRM Score ≥4, Aleo (2019)” value [11, 19] was “+VE (Partition Hybrid HRM Score ≥4)” and the “Partition Hybrid HRM Score ≥8, Aleo (2019)” value [11, 19] was “-VE”. The “Rule of Two hybrid HRM Score ≥3, Aleo (2019)” value [11, 19] was “+VE (Rule of Two hybrid HRM Score ≥3)”, the “Rule of Two hybrid HRM Score ≥8, Aleo (2019)” value [11, 19] was “-VE” and the “Assigned DILI category” value ([12]; Chen et al. 2016 or literature alignment, ref Chen et al. 2016) was 2. For the same compound, the “In vivo DILI” value ([12]; […]) was “+VE”, the “In vivo DILI” value ([12]; ref Aleo 2019) was “+VE” and the “In vivo DILI” value ([12]; ref Dawson 2012) was “+VE”. For the same compound, the “In vivo DILI” value ([12]; ref Garside 2014) was “+VE”, the “In vivo DILI” value ([12]; ref Gustafsson 2014) was “+VE” and the “In vivo DILI” value ([12]; ref O'Brien 2006) was “+VE”. For the same compound, the “In vivo DILI” value ([12]; ref Persson 2013) was “+VE”, the “In vivo DILI” value ([12]; ref Proctor 2017) was “+VE” and the “In vivo DILI” value ([12]; ref Tolosa 2012) was “+VE”. The “In vivo DILI” value ([12]; ref Tolosa 2019) was “+VE”, the “In vivo DILI” value ([12]; ref Vorrink 2018) was “+VE” and the “In vivo DILI” value ([12]; ref Williams 2019) was “+VE”. The “In vivo DILI” value ([12]; ref Xu 2008) was “+VE”, the “Structural based (HCI)” value (human hepatocytes; In vitro Assay, ref Xu 2008) was “+VE” and the “DILI in vitro assay prediction, Xu (2008)” value (human hepatocytes; Structural based (HCI), human hepatocytes, ref Xu et al. 2008) was “+VE”. For the same compound, the “PHH/100xCmax, Proctor (2017)” value (PHH; 2D PHH, ATP, IC50 < 100 × Cmax.tot, ref Proctor et al. 2017) was “+VE (IC50 < 100 × Cmax.tot)”, the “PHH/100uM, Proctor (2017)” value (PHH; 2D PHH, ATP, IC50 threshold 100 µM, ref Proctor et al. 2017) was “+VE (IC50 threshold of 100 µM)” and the “PHH ATP <100uM” value (PHH; [18]) was “+VE (IC50 threshold of 100 µM)”. For the same compound, the “Inhibition of rBsep cutoff<1& cmax u>.2” value (rBsep; In vitro Assay, ref Dawson 2012) was “-VE”, the “Inhibition of rBsep cutoff<3” value (rBsep) was “+VE” and the “HepaRG <25x Avg Cmax ATP” value (HepaRG spheroids; HepaRG, ATP endpoint, cut-off <25x Avg Cmax) was “+ve”. For the same compound, the “HepaRG <100x Avg Cmaxu ATP” value (HepaRG spheroids; HepaRG, ATP endpoint, cut-off <100x Avg Cmaxu) was “+ve (<100x Avg Cmaxu)”, the “HepaRG <25x Avg Cmax HCS” value (HepaRG spheroids; HepaRG, HCS endpoints, cut-off <25x Avg Cmax) was “+ve” and the “HepaRG <100x Avg Cmaxu HCS” value (HepaRG spheroids; HepaRG, HCS endpoints, cut-off <100x Avg Cmaxu) was “+ve (<100x Avg Cmaxu)”. For the same compound, the “HepaRG <25x Avg Cmax All” value (HepaRG spheroids; HepaRG, all endpoints (ATP and HCS), cut-off <25x Avg Cmax) was “+ve”, the “HepaRG Cmax max All” value (HepaRG spheroids; HepaRG, all endpoints, Cmax max used) was “+ve” and the “HepaRG Cmax min All” value (HepaRG spheroids; HepaRG, all endpoints, Cmax min used) was “+ve”. For the same compound, the “HepaRG <10 uM All” value (HepaRG spheroids; HepaRG, all endpoints, cut-off <10 uM) was “+ve (<10 uM)”, the “HepaRG <100x Avg Cmaxu All” value (HepaRG spheroids; HepaRG, all endpoints, cut-off <100x Avg Cmaxu) was “+ve (<100x Avg Cmaxu)” and the AC50 (HepaRG spheroids; HepaRG, read-out: ATP endpoint AC50) was 6.33 µM. It also gave a minimal effective concentration (HepaRG spheroids; HepaRG, read-out: ATP endpoint MEC) of 3.45 µM, an AC50 (HepaRG spheroids; HepaRG, read-out: HCS endpoint AC50) of 8.8 µM and a minimal effective concentration (HepaRG spheroids; HepaRG, read-out: HCS endpoint MEC) of 1.72 µM. The “DILI prediction HepaRG spheroids (HCS-MEC)” value (HepaRG spheroids; [16]) was “+VE (MEC < 25 × Cmax.tot cut-off)”, the fu [13] was 0.050 and the “Bayesian Machine Learning DILI prediction, Williams (2019)” value ([14]; Bayesian modeling, ref Williams et al. 2019) was “+VE”. For the same compound, the “Bayesian Machine Learning” value ([14]; In vitro Assay, ref Williams 2019) was “+VE”, the “Structural based (HCI)” value (HepG2 cells [15]; In vitro Assay, ref O'Brien 2006) was “+VE” and the “DILI in vitro assay prediction, O'Brien (2006)” value (HepG2 cells [15]; Structural based (HCI), HepG2, ref O'Brien et al. 2006) was “+VE (lowest HCI endpoint IC50 (or in the absence of dose–response < 100 µM) < 30 × total human plasma exposure levels (Cmax.tot))”.
